Columns and labels:
[1] = xn = mol fraction of the nth substance listed; conditions: 101 kPa, Liquid
[2] = 101.33 kPa, Liquid

O=Cc1ccccc1 [benzaldehyde] + CCCO
[1]
Conditions | mass density [kg/m3] | viscosity [mPa·s]
288.15 K, x2 = 0.099 | 1038.8 | 1.689
288.15 K, x2 = 0.193 | 1021.8 | 1.661
288.15 K, x2 = 0.3112 | 997.7 | 1.622
288.15 K, x2 = 0.3949 | 980.8 | 1.637
288.15 K, x2 = 0.5004 | 956.4 | 1.645
288.15 K, x2 = 0.5997 | 932.9 | 1.683
288.15 K, x2 = 0.6932 | – | 1.774
288.15 K, x2 = 0.8026 | 875.4 | 1.873
288.15 K, x2 = 0.9046 | 843.1 | 2.075
293.15 K, x2 = 0.0988 | 1034.2 | 1.536
293.15 K, x2 = 0.1927 | 1017 | 1.505
293.15 K, x2 = 0.3108 | 993.2 | 1.468
293.15 K, x2 = 0.3944 | 976.2 | 1.475
293.15 K, x2 = 0.5 | 951.6 | 1.483
293.15 K, x2 = 0.5992 | 928.6 | 1.501
293.15 K, x2 = 0.6927 | – | 1.588
293.15 K, x2 = 0.8023 | 871.4 | 1.669
293.15 K, x2 = 0.9045 | 839.1 | 1.84
298.15 K, x2 = 0.099 | 1029.9 | 1.405
298.15 K, x2 = 0.1929 | 1012.8 | 1.373
298.15 K, x2 = 0.3111 | 989.2 | 1.337
298.15 K, x2 = 0.3948 | 971.3 | 1.333
298.15 K, x2 = 0.5003 | 947 | 1.342
298.15 K, x2 = 0.5996 | 923.7 | 1.363
298.15 K, x2 = 0.693 | – | 1.423
298.15 K, x2 = 0.8025 | 867.6 | 1.491
298.15 K, x2 = 0.9046 | 835.3 | 1.64
303.15 K, x2 = 0.0989 | 1025.9 | 1.292
303.15 K, x2 = 0.1927 | 1008.1 | 1.258
303.15 K, x2 = 0.3108 | 984.8 | 1.224
303.15 K, x2 = 0.3945 | 967 | 1.216
303.15 K, x2 = 0.5 | 942.9 | 1.223
303.15 K, x2 = 0.5993 | 919.5 | 1.237
303.15 K, x2 = 0.6928 | – | 1.287
303.15 K, x2 = 0.8023 | 863.6 | 1.342
303.15 K, x2 = 0.9045 | 831.6 | 1.491
308.15 K, x2 = 0.0988 | 1021.4 | 1.193
308.15 K, x2 = 0.1926 | 1003.4 | 1.158
308.15 K, x2 = 0.3106 | 980.1 | 1.126
308.15 K, x2 = 0.3942 | 962.7 | 1.12
308.15 K, x2 = 0.4997 | 937.8 | 1.117
308.15 K, x2 = 0.599 | 915.5 | 1.128
308.15 K, x2 = 0.6925 | – | 1.169
308.15 K, x2 = 0.8022 | 858.9 | 1.215
308.15 K, x2 = 0.9044 | 827.3 | 1.317
313.15 K, x2 = 0.0986 | 1015.1 | 1.104
313.15 K, x2 = 0.1923 | 997.8 | 1.069
313.15 K, x2 = 0.3102 | 973.8 | 1.039
313.15 K, x2 = 0.3938 | 956.5 | 1.024
313.15 K, x2 = 0.4993 | 934 | 1.026
313.15 K, x2 = 0.5986 | 910.9 | 1.033
313.15 K, x2 = 0.6922 | 894.8 | 1.063
313.15 K, x2 = 0.8019 | 853.6 | 1.099
313.15 K, x2 = 0.9043 | 823.6 | 1.188

O=Cc1ccccc1 [benzaldehyde] + ClCCCl
[1]
Conditions | mass density [kg/m3] | viscosity [mPa·s]
288.15 K, x1 = 0.1005 | 1233 | 0.9491
288.15 K, x1 = 0.2068 | 1207.2 | 1.034
288.15 K, x1 = 0.2964 | 1186.5 | 1.097
288.15 K, x1 = 0.3902 | 1166 | 1.171
288.15 K, x1 = 0.4888 | 1146.4 | 1.27
288.15 K, x1 = 0.5923 | 1125.5 | 1.348
288.15 K, x1 = 0.7012 | 1107.6 | 1.454
288.15 K, x1 = 0.8159 | 1086.7 | 1.58
288.15 K, x1 = 0.9061 | 1070.6 | 1.66
293.15 K, x1 = 0.1007 | 1227.6 | 0.8854
293.15 K, x1 = 0.2072 | 1200 | 0.9592
293.15 K, x1 = 0.2969 | 1180.5 | 1.017
293.15 K, x1 = 0.3909 | 1161.8 | 1.085
293.15 K, x1 = 0.4894 | 1139.5 | 1.168
293.15 K, x1 = 0.5929 | 1119.9 | 1.242
293.15 K, x1 = 0.7017 | 1102.2 | 1.335
293.15 K, x1 = 0.8163 | 1082 | 1.445
293.15 K, x1 = 0.9063 | 1066.4 | 1.517
298.15 K, x1 = 0.1006 | 1220.5 | 0.8213
298.15 K, x1 = 0.2069 | 1196.1 | 0.8951
298.15 K, x1 = 0.2965 | 1174.6 | 0.9471
298.15 K, x1 = 0.3904 | 1155.5 | 1.008
298.15 K, x1 = 0.4889 | 1133.4 | 1.08
298.15 K, x1 = 0.5924 | 1117.3 | 1.151
298.15 K, x1 = 0.7013 | 1098.6 | 1.233
298.15 K, x1 = 0.816 | 1077.9 | 1.328
298.15 K, x1 = 0.9061 | 1063.1 | 1.394
303.15 K, x1 = 0.1009 | 1214.3 | 0.7706
303.15 K, x1 = 0.2074 | 1190 | 0.8362
303.15 K, x1 = 0.2972 | 1169.8 | 0.8848
303.15 K, x1 = 0.3911 | 1150.1 | 0.9515
303.15 K, x1 = 0.4897 | 1126.5 | 1.003
303.15 K, x1 = 0.5932 | 1112.7 | 1.07
303.15 K, x1 = 0.702 | 1094.4 | 1.143
303.15 K, x1 = 0.8165 | 1073.2 | 1.225
303.15 K, x1 = 0.9064 | 1058.5 | 1.285
308.15 K, x1 = 0.1011 | 1206.5 | 0.726
308.15 K, x1 = 0.2078 | 1182.6 | 0.7824
308.15 K, x1 = 0.2976 | 1162.9 | 0.828
308.15 K, x1 = 0.3917 | 1144.1 | 0.8897
308.15 K, x1 = 0.4903 | 1121 | 0.9346
308.15 K, x1 = 0.5937 | 1107.8 | 0.998
308.15 K, x1 = 0.7025 | 1091 | 1.067
308.15 K, x1 = 0.8168 | 1068.5 | 1.135
308.15 K, x1 = 0.9066 | 1053 | 1.189
313.15 K, x1 = 0.1013 | 1198 | 0.6795
313.15 K, x1 = 0.2083 | 1173.6 | 0.7327
313.15 K, x1 = 0.2983 | 1153.9 | 0.777
313.15 K, x1 = 0.3924 | 1136.7 | 0.8272
313.15 K, x1 = 0.491 | 1115.5 | 0.8725
313.15 K, x1 = 0.5945 | 1102.2 | 0.9318
313.15 K, x1 = 0.7031 | 1085.5 | 0.9944
313.15 K, x1 = 0.8173 | 1063.1 | 1.054
313.15 K, x1 = 0.9069 | 1049.7 | 1.107

CCCO [propan-1-ol]
[2]
Conditions | mass density [kg/m3] | viscosity [mPa·s]
288.15 K | 810.5 | 2.42
293.15 K | 806.5 | 2.137
298.15 K | 803.2 | 1.894
303.15 K | 799.3 | 1.684
308.15 K | 795.2 | 1.504
313.15 K | 790.4 | 1.352

Source: the NIST ThermoML archive (doi:10.1021/je900212d)
